Assay results: ChEMBL document CHEMBL1201862, “PubChem BioAssay data set” (2004)
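The compound was tested at five concentrations on cells cultured in 96-well plates, with a 48-hour exposure period. The concentration for 50% growth inhibition is given as GI50.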 The source made the active and inactive calls. No stated cut-off is given here; in the data, active = GI50 up to about 1.1 µM and inactive = higher.

Experiments:
Assay in all cases: NCI tumour cell line growth inhibition, 48 h
A549 = tested on: A549
ACHN = tested on: ACHN
CAKI-1 = tested on: CAKI-1
COLO 205 = tested on: COLO 205
DU-145 = tested on: DU-145
HOP-62 = tested on: HOP-62
HOP-92 = tested on: HOP-92
Hs-578T = tested on: Hs-578T
IGROV-1 = tested on: IGROV-1
KM12 = tested on: KM12
MDA-MB-231 = tested on: MDA-MB-231
NCI-H226 = tested on: NCI-H226
NCI/ADR-RES = tested on: NCI/ADR-RES
OVCAR-3 = tested on: OVCAR-3
OVCAR-5 = tested on: OVCAR-5
RXF 393 = tested on: RXF 393
SF-539 = tested on: SF-539
SN12C = tested on: SN12C
TK-10 = tested on: TK-10
UO-31 = tested on: UO-31

SMILES: O=C(Nc1ccc2ncccc2c1)c1cc2c(cc1Cl)Sc1nccn1S2(=O)=O
- GI50 (A549): 17.5 µM (inactive)
- GI50 (ACHN): 31.2 µM (inactive)
- GI50 (CAKI-1): 22 µM (inactive)
- GI50 (COLO 205): 18.7 µM (inactive)
- GI50 (DU-145): 14.3 µM (inactive)
- GI50 (HOP-62): 16.4 µM (inactive)
- GI50 (HOP-92): 27.7 µM (inactive)
- GI50 (Hs-578T): 31.2 µM (inactive)
- GI50 (IGROV-1): 12.6 µM (inactive)
- GI50 (KM12): 6.4 µM (inactive)
- GI50 (MDA-MB-231): 20.4 µM (inactive)
- GI50 (NCI-H226): 18.1 µM (inactive)
- GI50 (NCI/ADR-RES): 19 µM (inactive)
- GI50 (OVCAR-3): 21.7 µM (inactive)
- GI50 (OVCAR-5): 20.9 µM (inactive)
- GI50 (RXF 393): 15.6 µM (inactive)
- GI50 (SF-539): 20 µM (inactive)
- GI50 (SN12C): 17.5 µM (inactive)
- GI50 (TK-10): 20.4 µM (inactive)
- GI50 (UO-31): 18.2 µM (inactive)

SMILES: C=CC1=C(C)c2cc3[nH]c(c4c5nc(cc6[nH]c(cc1n2)c(C)c6CC)C(C)=C5C(=O)[C@@H]4C(=O)OC)[C@@H](CCC(=O)O)[C@@H]3C
- GI50 (A549): 3.95 µM (inactive)
- GI50 (ACHN): 2.27 µM (inactive)
- GI50 (CAKI-1): 9.51 µM (inactive)
- GI50 (COLO 205): 4.28 µM (inactive)
- GI50 (DU-145): 33.8 µM (inactive)
- GI50 (HOP-62): 8.95 µM (inactive)
- GI50 (HOP-92): 1.63 µM (inactive)
- GI50 (Hs-578T): 3.66 µM (inactive)
- GI50 (IGROV-1): 7.24 µM (inactive)
- GI50 (KM12): 4.83 µM (inactive)
- GI50 (MDA-MB-231): 11.2 µM (inactive)
- GI50 (NCI-H226): 6.01 µM (inactive)
- GI50 (NCI/ADR-RES): 9.02 µM (inactive)
- GI50 (OVCAR-3): 2.04 µM (inactive)
- GI50 (OVCAR-5): 3.41 µM (inactive)
- GI50 (RXF 393): 1.29 µM (inactive)
- GI50 (SF-539): 1.86 µM (inactive)
- GI50 (SN12C): 5.45 µM (inactive)
- GI50 (TK-10): 2.82 µM (inactive)
- GI50 (UO-31): 2.33 µM (inactive)

SMILES: CC(=O)N1N=C(c2ccc3ccccc3c2O)CC1c1ccc(N(C)C)cc1 (stereo not given)
- GI50 (A549): > 100 µM (inactive)
- GI50 (ACHN): > 100 µM (inactive)
- GI50 (CAKI-1): > 100 µM (inactive)
- GI50 (COLO 205): > 100 µM (inactive)
- GI50 (DU-145): > 100 µM (inactive)
- GI50 (HOP-62): > 100 µM (inactive)
- GI50 (HOP-92): > 100 µM (inactive)
- GI50 (Hs-578T): > 100 µM (inactive)
- GI50 (IGROV-1): > 100 µM (inactive)
- GI50 (KM12): > 100 µM (inactive)
- GI50 (MDA-MB-231): > 100 µM (inactive)
- GI50 (NCI-H226): > 100 µM (inactive)
- GI50 (NCI/ADR-RES): > 100 µM (inactive)
- GI50 (OVCAR-3): > 100 µM (inactive)
- GI50 (OVCAR-5): > 100 µM (inactive)
- GI50 (RXF 393): > 100 µM (inactive)
- GI50 (SF-539): > 100 µM (inactive)
- GI50 (SN12C): > 100 µM (inactive)
- GI50 (TK-10): > 100 µM (inactive)
- GI50 (UO-31): > 100 µM (inactive)

SMILES: COC(=O)C1=C(OC(=O)/C(=C/c2ccc(Cl)cc2Cl)c2ccc(Cl)cc2Cl)C(C(=O)OC)[C@@]2(O)[C@@H](C(=O)OC)[C@H](C)C[C@@H]1[C@@H]2C(=O)OC (stereo not given in full)
- GI50 (A549): 13.5 µM (inactive)
- GI50 (ACHN): > 100 µM (inactive)
- GI50 (CAKI-1): > 100 µM (inactive)
- GI50 (COLO 205): > 100 µM (inactive)
- GI50 (DU-145): > 100 µM (inactive)
- GI50 (HOP-62): > 100 µM (inactive)
- GI50 (HOP-92): 22.9 µM (inactive)
- GI50 (Hs-578T): > 100 µM (inactive)
- GI50 (IGROV-1): > 100 µM (inactive)
- GI50 (KM12): > 100 µM (inactive)
- GI50 (MDA-MB-231): 40 µM (inactive)
- GI50 (NCI-H226): > 100 µM (inactive)
- GI50 (NCI/ADR-RES): > 100 µM (inactive)
- GI50 (OVCAR-3): > 100 µM (inactive)
- GI50 (OVCAR-5): > 100 µM (inactive)
- GI50 (RXF 393): 61.8 µM (inactive)
- GI50 (SF-539): > 100 µM (inactive)
- GI50 (SN12C): > 100 µM (inactive)
- GI50 (TK-10): > 100 µM (inactive)
- GI50 (UO-31): > 100 µM (inactive)

SMILES: CCOC(=O)c1cc(C#N)[nH]c1-c1ccsc1
- GI50 (A549): 31.7 µM (inactive)
- GI50 (ACHN): 39.5 µM (inactive)
- GI50 (CAKI-1): 50.7 µM (inactive)
- GI50 (COLO 205): 32.2 µM (inactive)
- GI50 (DU-145): 24.3 µM (inactive)
- GI50 (HOP-62): 59.8 µM (inactive)
- GI50 (HOP-92): 38.6 µM (inactive)
- GI50 (Hs-578T): 25.7 µM (inactive)
- GI50 (IGROV-1): 40.4 µM (inactive)
- GI50 (KM12): 25.1 µM (inactive)
- GI50 (MDA-MB-231): 41.6 µM (inactive)
- GI50 (NCI-H226): 44.3 µM (inactive)
- GI50 (NCI/ADR-RES): 32.4 µM (inactive)
- GI50 (OVCAR-3): 31 µM (inactive)
- GI50 (OVCAR-5): 34.8 µM (inactive)
- GI50 (RXF 393): 17.3 µM (inactive)
- GI50 (SF-539): 28.6 µM (inactive)
- GI50 (SN12C): 54.7 µM (inactive)
- GI50 (TK-10): 38.5 µM (inactive)
- GI50 (UO-31): 0.114 µM (active)

SMILES: CC(C)OC(=O)c1ccc(CCc2cc(O)c(Br)cc2O)cc1
- GI50 (A549): 20.3 µM (inactive)
- GI50 (ACHN): 18 µM (inactive)
- GI50 (CAKI-1): 11.4 µM (inactive)
- GI50 (COLO 205): 15.2 µM (inactive)
- GI50 (DU-145): 14.4 µM (inactive)
- GI50 (HOP-62): 12.3 µM (inactive)
- GI50 (HOP-92): 20.9 µM (inactive)
- GI50 (Hs-578T): 14.6 µM (inactive)
- GI50 (IGROV-1): 9.2 µM (inactive)
- GI50 (KM12): 6.56 µM (inactive)
- GI50 (MDA-MB-231): 12 µM (inactive)
- GI50 (NCI-H226): 18.7 µM (inactive)
- GI50 (NCI/ADR-RES): 9.2 µM (inactive)
- GI50 (OVCAR-3): 8.11 µM (inactive)
- GI50 (OVCAR-5): 17.5 µM (inactive)
- GI50 (RXF 393): 15 µM (inactive)
- GI50 (SF-539): 7.36 µM (inactive)
- GI50 (SN12C): 13.4 µM (inactive)
- GI50 (TK-10): 16.9 µM (inactive)
- GI50 (UO-31): 5.52 µM (inactive)

SMILES: COc1ccc(Oc2cnn(C(Br)(Br)C(C)=O)c(=O)c2Br)cc1
- GI50 (A549): 24 µM (inactive)
- GI50 (ACHN): 13.6 µM (inactive)
- GI50 (CAKI-1): 10.8 µM (inactive)
- GI50 (COLO 205): 13.4 µM (inactive)
- GI50 (DU-145): 19.2 µM (inactive)
- GI50 (HOP-62): 16.7 µM (inactive)
- GI50 (HOP-92): 14.7 µM (inactive)
- GI50 (Hs-578T): 26.1 µM (inactive)
- GI50 (IGROV-1): 18.5 µM (inactive)
- GI50 (KM12): 14.8 µM (inactive)
- GI50 (MDA-MB-231): 17.9 µM (inactive)
- GI50 (NCI-H226): 21.4 µM (inactive)
- GI50 (NCI/ADR-RES): 18.5 µM (inactive)
- GI50 (OVCAR-3): 4.19 µM (inactive)
- GI50 (OVCAR-5): 17.7 µM (inactive)
- GI50 (RXF 393): 6.08 µM (inactive)
- GI50 (SF-539): 12.4 µM (inactive)
- GI50 (SN12C): 15 µM (inactive)
- GI50 (TK-10): 13.5 µM (inactive)
- GI50 (UO-31): 7.66 µM (inactive)
